According to patent US11401278B2, “Macrocyclic indole derivatives” (The Broad Institute, Inc., priority 2017, dated 2022):
Counter-ions that a name gives are not always drawn.

Molecular target: BCL-XL (Homo sapiens (Human), UniProt Q07817)
Test: Protein-protein interaction assay BCL-XL/Bad BH3 peptide (BCL-XL assay, TR-FRET)
Format: binding
Settings: His-BCL-XL / Bad BH3 peptide, median
Procedure, shortened: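 His-tagged human BCL-XL (aa 1-212, 1 nM final) was preincubated 10 min at 22 °C with compound (11 concentrations, 0.1 nM–20 μM), then biotinylated Bad BH3 peptide (1 nM) and TR-FRET reagents were added. Incubation: 1 h at 22 °C, then overnight at 4 °C, pH 7 Tris buffer. IC50 from 4-parameter fit of 665/620 ratio.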

BCL-XL, sequence (Q07817 other isoform, or with tags, fused parts or gaps): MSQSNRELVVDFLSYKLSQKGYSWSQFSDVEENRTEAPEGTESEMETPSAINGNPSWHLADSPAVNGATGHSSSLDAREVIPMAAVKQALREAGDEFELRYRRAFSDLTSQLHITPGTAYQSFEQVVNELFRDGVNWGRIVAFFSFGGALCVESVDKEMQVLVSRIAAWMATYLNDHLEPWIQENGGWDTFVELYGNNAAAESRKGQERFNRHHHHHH

SMILES: Cc1c2c(nn1C)C(CCN1CCOCC1)N(C)S(=O)(=O)CCCn1c(C(=O)O)c(CCCOc3cccc4ccccc34)c3cccc-2c31 (single isomer, unassigned; enantiomer 2) [Example 46, 2,3,14-trimethyl-15-[2-(morpholin-4-yl)ethyl]-7-{3-[(naphthalen-1-yl)oxy]propyl}-13,13-dioxo-10,11,12,13,14,15-hexahydro-2H-13lambda^6-pyrazolo[3′,4′:4,5][1,2,8]thiadiazacycloundecino[6,7,8-hi]indole-8-carboxylic acid N-ethylethanamine Salt (Enantiomer 2)]
- IC50: > 20 µM

SMILES: Cc1c2c(nn1C)CNS(=O)(=O)CCCn1c(C(=O)O)c(CCCOc3cccc4cc(F)ccc34)c3ccc(Cl)c-2c31 (single isomer, unassigned; enantiomer 2) [Example 52, 4-chloro-7-{3-[(6-fluoronaphthalen-1-yl)oxy]propyl}-2,3-dimethyl-13,13-dioxo-10,11,12,13,14,15-hexahydro-2H-13lambda^6-pyrazolo[3′,4′:4,5][1,2,8]thiadiazacycloundecino[6,7,8-hi]indole-8-carboxylic acid (Enantiomer 2)]
- IC50: 16 µM

SMILES: CCc1c2c(nn1C)C(CCC1CCOCC1)N(C)S(=O)(=O)CCCn1c(C(=O)O)c(CCCOc3cccc4cc(F)ccc34)c3ccc(Cl)c-2c31 (single isomer, unassigned; enantiomer 2) [Example 62, (−)-4-chloro-3-ethyl-7-{3-[(6-fluoronaphthalen-1-yl)oxy]propyl}-2,14-dimethyl-15-[2-(oxan-4-yl)ethyl]-13,13-dioxo-10,11,12,13,14,15-hexahydro-2H-13lambda^6-pyrazolo[3′,4′:4,5][1,2,8]thiadiazacycloundecino[6,7,8-hi]indole-8-carboxylic acid (Enantiomer 2)]
- IC50: 18 µM

SMILES: CCc1c2c(nn1C)C(CCC1CCOCC1)N(C)S(=O)(=O)CCCn1c(C(=O)O)c(CCCOc3cccc4cc(F)ccc34)c3ccc(Cl)c-2c31 (single isomer, unassigned; enantiomer 3) [Example 63, (+)-4-chloro-3-ethyl-7-{3-[(6-fluoronaphthalen-1-yl)oxy]propyl}-2,14-dimethyl-15-[2-(oxan-4-yl)ethyl]-13,13-dioxo-10,11,12,13,14,15-hexahydro-2H-13lambda^6-pyrazolo[3′,4′:4,5][1,2,8]thiadiazacycloundecino[6,7,8-hi]indole-8-carboxylic acid (Enantiomer 3)]
- IC50: 19 µM

SMILES: CCc1c2c(nn1C)C(CCC1CCOCC1)N(C)S(=O)(=O)CCCn1c(C(=O)O)c(CCCOc3cccc4cc(F)ccc34)c3ccc(Cl)c-2c31 (single isomer, unassigned; enantiomer 4) [Example 64, (−)-4-chloro-3-ethyl-7-{3-[(6-fluoronaphthalen-1-yl)oxy]propyl}-2,14-dimethyl-15-[2-(oxan-4-yl)ethyl]-13,13-dioxo-10,11,12,13,14,15-hexahydro-2H-13lambda^6-pyrazolo[3′,4′:4,5][1,2,8]thiadiazacycloundecino[6,7,8-hi]indole-8-carboxylic acid (Enantiomer 4)]
- IC50: > 20 µM

SMILES: CCc1c2c(nn1C)CN(C)S(=O)(=O)CCCn1c(C(=O)O)c(CCCOc3cccc4ccccc34)c3ccc(Cl)c-2c31 [Example 20, (rac)-13-Chloro-12-ethyl-8,11-dimethyl-1-(3-(naphthalen-1-yloxy)propyl)-5,6,9,11-tetrahydro-4H,8H-pyrazolo[3′,4′:4,5][1]thia[2,8]diazacycloundecino[6,7,8-hi]indole-2-carboxylic acid 7,7-dioxide]
- IC50: > 20 µM

SMILES: CCc1c2c(nn1C)CN(C)S(=O)(=O)CCCn1c(C(=O)O)c(CCCOc3cccc4c3CCC4)c3ccc(Cl)c-2c31 [Example 21, (rac)-13-Chloro-1-(3-((2,3-dihydro-1H-inden-4-yl)oxy)propyl)-12-ethyl-8,11-dimethyl-5,6,9,11-tetrahydro-4H,8H-pyrazolo[3′,4′:4,5][1]thia[2,8]diazacycloundecino[6,7,8-hi]indole-2-carboxylic acid 7,7-dioxide]
- IC50: > 20 µM
